Experimental data published in patent US9926293B2, “Multivalent RAS binding compounds” (THE TRUSTEES OF COLUMBIA UNIVERSITY IN THE CITY OF NEW YORK, priority 2014, dated 2018).

Key:
[1] = biological target: T1, GTP-loaded KRAS G12D (Homo sapiens, UniProt P01116, G12D); experiment: Microscale thermophoresis, GTP-loaded KRAS G12D labeled with NT-647-maleimide; type: binding; conditions: read-out: dissociation constant KD
T1 construct: made in house; host or cells: Escherichia coli BL21-Gold (DE3)
Protocol: Microscale Thermophoresis
KRAS^G12D (250 μM) in 25 mM HEPES, 100 mM sodium chloride, 2 mM TCEP with 20 mM EDTA and 1 mM GppNHp was shaken at 220 rpm at 30° C. to remove the endogenous nucleotide, The solution was placed on ice for 2 minutes prior to the addition of 65 mM MgCl2. […] The protein/dye mixture was rotated at 4° C. for 30 minutes, before being separated from the excess dye and buffer exchanged into 25 mM Tris, 100 mM sodium chloride, 2 mM TCEP, and 5 mM MgCl2 via a nap-5 column. The test compounds were arrayed across a 16-point dilution series consisting of 1.5% DMSO with 25 mM Tris, 100 mM NaCl, 2 mM TCEP, 5 mM MgCl2 and 0.05% tween-20. Thermophoretic movement of the fluorescently labeled protein with the inhibitors was performed using a Monolith NT.115 (Nanotemper Technologies). RALA and RHOA were purchased commercially from Abcam (RALA CN:ab102555, RHOA CN:ab101594).
(§1) A set of 45 of the closest matches (ranging from 0.85-0.97 Tanimoto coefficient) were synthesized (based on Scheme 2 with appropriate modifications) and tested for their ability to bind to KRAS^G12D by differential scanning fluorimetry.

[2] = biological target: T2, KRAS^G12D D38A (Homo sapiens, UniProt P01116, D38A/G12D); experiment: Microscale thermophoresis on binding-site mutant KRAS^G12D D38A
T2 construct: His6 (N); made in house
Protocol: (§2) Mutagenesis of the KRAS^G12D plasmid was performed using a QuikChange XL site-directed mutagenesis kit from Agilent technologies, according to the manufacturer's protocol. Primers were designed using the Agilent QuikChange Primer Design application and purchased from Integrated DNA Technologies. KRAS^G12D D38A forward primer 5′ ATATGATCCAACAATAGAGGCTTCCTACAGGAAGCAAGTAG 3′ (SEQ ID NO: 66), KRAS^G12D D38A reverse primer 5′ CTACTTGCTTCCTGTAGGAAGCCTCTATTGTTGGATCATAT 3′ (SEQ ID NO: 67), KRAS^G12D I36N forward primer 5′ CATTTTGTGGACGAATATGATCCAACAAATGAGGATTCCTACAGG 3′ (SEQ ID NO: 68), KRAS^G12D I36N reverse primer 5′ CCTGTAGGAATCCTCATTTGTTGGATCATATTCGTCCACAAAATG 3′ (SEQ ID NO: 69). DNA sequencing was performed to confirm the correct amino acid sequence of the construct (GeneWiz, Inc.).
(§3) KRAS^G12D (250 μM) in 25 mM HEPES, 100 mM sodium chloride, 2 mM TCEP with 20 mM EDTA and 1 mM GppNHp was shaken at 220 rpm at 30° C. to remove the endogenous nucleotide, The solution was placed on ice for 2 minutes prior to the addition of 65 mM MgCl2. After an additional 10 minutes incubation on ice, 200 uL of a 10 uM solution of KRAS^G12D was combined with 200 uL of a 20 uM solution of NT-647-NHS-ester dye (from a 652.4 μM stock). The protein/dye mixture was rotated at 4° C. for 30 minutes, before being separated from the excess dye and buffer exchanged into 25 mM Tris, 100 mM sodium chloride, 2 mM TCEP, and 5 mM MgCl2 via a nap-5 column. The test compounds were arrayed across a 16-point dilution series consisting of 1.5% DMSO with 25 mM Tris, 100 mM NaCl, 2 mM TCEP, 5 mM MgCl2 and 0.05% tween-20. Thermophoretic movement of the fluorescently labeled protein with the inhibitors was performed using a Monolith NT.115 (Nanotemper Technologies). RALA and RHOA were purchased commercially from Abcam (RALA CN:ab102555, RHOA CN:ab101594).
as §1

[3] = biological target: T3, KRAS^G12D I36N (Homo sapiens, UniProt P01116, G12D/I36N); experiment: Microscale thermophoresis on binding-site mutant KRAS^G12D I36N; conditions: MST, 31MEW79 experiment of b434
T3 construct: His6 (N); made in house
Protocol: as §2
as §3, with “CN:ab101594). […]” for “CN:ab101594).”

[4] = biological target: T4, GppNHp-bound KRAS^G12D (Homo sapiens, UniProt P01116, G12D); experiment: Binding to KRAS and measurement of dissociation constants (FIG. 4B-4C), GppNHp-bound; conditions: read-out: dissociation constant KD
T4 construct: made in house; host or cells: Escherichia coli BL21-Gold (DE3)

[5] = biological target: T5, GDP-bound KRAS^G12D (Homo sapiens, UniProt P01116, G12D); experiment: Binding to KRAS and measurement of dissociation constants (FIG. 4B-4C), GDP-bound; conditions: read-out: dissociation constant KD
T5 construct: made in house; host or cells: Escherichia coli BL21-Gold (DE3)

[6] = biological target: T6, KRAS^G12D⋅BODIPY-GTP (Homo sapiens, UniProt P01116, G12D); experiment: Nucleotide displacement assay with BODIPY-GTP (fluorescence polarization); type: binding; conditions: 2.5 μM KRAS^G12D⋅BODIPY-GTP, 12 hours
T6 construct: made in house; host or cells: Escherichia coli BL21-Gold (DE3)
Protocol: Nucleotide Displacement Assay
To investigate whether compounds were binding to the same site as GTP, a fluorescent polarization assay was implemented using fluorescently-labeled BODIPY-GTP as a probe. When BODIPY-GTP is free in solution, it has a low polarization. However, when BODIPY-GTP is bound to K-Ras protein, the polarization intensity is high. K-Ras G12D bound to BODIPY-GTP was incubated with different concentrations of ligand or unlabeled GTP or GDP in buffer containing 25 mM Tris-HCl, pH 8, 100 mM NaCl, 5 mM MgCl2, 1 mM EDTA, and 1 mM TCEP. The final concentration of K-Ras G12D bound to BODIPY-GTP in each well was 2.5 μM. The samples were incubated at 25° C. for 12 hours with gentle shaking to allow for the slow intrinsic nucleotide release reaction to take place. The change in fluorescence was measured on a Victor3 plate reader (Perkin Elmer) in 384-well black low-volume plates (Corning, Inc.). The BODIPY-GTP fluorophore was excited at 485 nm and emission was monitored at 535 nm.

[7] = biological target: T7, GTP-loaded KRAS^G12D / CRAF RBD interaction (Homo sapiens, UniProt P01116, G12D); experiment: In vitro RAS pulldown with CRAF RBD; type: biochemical; conditions: in vitro pull-down
T7 construct: made in house; host or cells: Escherichia coli BL21-Gold (DE3)
Protocol: A 20 μM solution of KRAS^G12D in 50 mM HEPES, 200 mM sodium chloride, 2 mM TCEP with 1 mM EDTA and 1 mM GTP was gently rotated at 25° C. to remove the endogenous nucleotide. Magnesium chloride was then added to 5 mM and the resulting solution was rotated at 4° C. for 4 hours. The GTP-loaded KRAS^G12D was then diluted to 20 nM and incubated with the inhibitors and 5 μL of CRAF-RBD agarose beads (Millipore), 10 μL of RAF1-RBD agarose beads (EMD Millipore, CN: 14-278), or 100 nM RALGDS (Abcam, CN: ab132590) with 20 μL of glutathione beads for 2 hours. The beads were separated from the lysate via a 0.1 μm filter spin cup and centrifuging at 14,000-15,000 rpm. They were then washed twice with PBS before the addition of 1×SDS. The quantity of RAS in the samples was then analyzed using the previously described Western blotting procedure.
as §1

NCCC[C@@H](NC(=O)CN1CCCNCC1)C(=O)NC1Cc2ccccc2C1 [Compound 31MEW79, (R)-2-(2-(1,4-diazepan-1-yl)ethanamido)-5-amino-N-(2,3-dihydro-1H-inden-2-yl)pentanamide]
Kd [1]: 33 µM | loss in affinity ([2]; KRAS^G12D D38A and I36N vs KRAS^G12D): 1.5 to 3.0 fold | Kd ([2]; MST, 31MEW79 experiment of b434): 83 µM | Kd [3]: 47 µM | Kd [4]: 3800 µM | Kd [5]: 7100 µM | displacement of BODIPY-GTP [6]: No displacement | CRAF-bound KRAS^G12D [7]: dose-dependent decrease
